{"source": "PubChem BioAssay AID1404", "about": "(The Scripps Research Institute Molecular Screening Center, 2008)", "note": "Active and inactive are the calls of the source.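 Rule for the calls: active = EC50 for STAT3 reporter activation at or below 10 µM; inactive = the rest.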", "data": [{"test_system": "U3A cells, IL-6 STAT3 luciferase reporter, luminescence", "assay": "STAT3 activators in IL-6-stimulated reporter cells, dose response, counter-screen for STAT1 activator project, U3A cells, STAT1-deficient, luminescence, IL-6 stimulus (AID 1404)", "values": [{"smiles": "Cc1ccc(C(=O)Nc2nc3ccccc3s2)s1", "EC50": "> 55.7 µM (inactive)"}, {"smiles": "O=C(NCCC1=CCCCC1)c1ccc(F)cc1", "EC50": "> 55.7 µM (inactive)"}, {"smiles": "Cc1ccc(C(=O)Nc2nc3c(s2)CCCC3)o1", "EC50": "> 55.7 µM (inactive)"}, {"smiles": "CCc1ccc(Nc2ncc3c(n2)CC(C)CC3=O)cc1", "note": "(stereo not drawn)", "EC50": "> 55.7 µM (inactive)"}, {"smiles": "C=CCNC(=O)c1cc(-c2ccc(Br)cc2)on1", "EC50": "> 55.7 µM (inactive)"}, {"smiles": "C/C(=C\\c1ccccc1)C(=O)Nc1nccs1", "EC50": "> 55.7 µM (inactive)"}, {"smiles": "O=C(/C=C/c1ccccc1)Nc1ccc(Cl)cn1", "EC50": "> 55.7 µM (inactive)"}, {"smiles": "Cc1ccc2nc(NC(=O)CCn3cccc3)sc2c1", "EC50": "> 55.7 µM (inactive)"}, {"smiles": "CC(C)Oc1ccc2c(=O)c(-c3ccccc3)coc2c1", "EC50": "> 55.7 µM (inactive)"}, {"smiles": "Cc1ccc(/C=C/C(=O)Nc2ccccc2C(N)=O)cc1", "EC50": "> 55.7 µM (inactive)"}, {"smiles": "COc1ccc(N/C=C\\C(=O)c2ccc3c(c2)OCO3)cc1OC", "EC50": "> 55.7 µM (inactive)"}, {"smiles": "c1ccc(CNc2ccc3ccccc3n2)nc1", "EC50": "> 55.7 µM (inactive)"}, {"smiles": "CCc1ccc(NC(=O)N2CCC(c3ccccc3)C2)cc1", "note": "(stereo not drawn)", "EC50": "> 55.7 µM (inactive)"}, {"smiles": "O=C(NC(=S)Nc1ccc(F)cc1)c1ccc2c(c1)OCCO2", "EC50": "> 55.7 µM (inactive)"}, {"smiles": "COc1ccc2nc(Nc3ccc4c(c3)OCO4)sc2c1", "EC50": "> 55.7 µM (inactive)"}, {"smiles": "Cc1ccc(NC(=O)Nc2ccc3oc(C)nc3c2)cc1", "EC50": "> 55.7 µM (inactive)"}, {"smiles": "CC(=O)Nc1ccc(-c2csc(Nc3cccc(C)n3)n2)cc1", "EC50": "> 55.7 µM (inactive)"}, {"smiles": "N#C/C(=C\\c1ccc(N2CCOCC2)o1)c1nc2ccccc2[nH]1", "EC50": "> 55.7 µM (inactive)"}, {"smiles": "CN(C)c1nc(N)nc(CSc2nc3cc(Cl)ccc3o2)n1", "EC50": "> 55.7 µM (inactive)"}, {"smiles": "O=C(/C=C/Nc1ccccc1F)c1ccc(Br)cc1", "EC50": "> 55.7 µM (inactive)"}, {"smiles": "CCOC(=O)c1sc(NC(=O)c2sccc2C)cc1C", "EC50": "> 55.7 µM (inactive)"}, {"smiles": "Nc1ccc2oc(-c3ccccc3Cl)nc2c1", "EC50": "> 55.7 µM (inactive)"}, {"smiles": "COc1cc(NC(=O)c2csc3c2CCCC3)ncn1", "EC50": "> 55.7 µM (inactive)"}, {"smiles": "Cc1ccc(-c2cnc(-c3ccncc3)o2)cc1", "EC50": "> 55.7 µM (inactive)"}, {"smiles": "Fc1ccc2nc(Nc3nc4cc5c(cc4s3)OCCO5)sc2c1", "EC50": "> 55.7 µM (inactive)"}, {"smiles": "C=CCn1c(C)cc(C(=O)CSc2nc3ccccc3o2)c1C", "EC50": "> 55.7 µM (inactive)"}, {"smiles": "O=C(Nc1nccs1)c1ccc(-c2ccc([N+](=O)[O-])cc2)o1", "EC50": "> 55.7 µM (inactive)"}, {"smiles": "COc1cccc(NC(=O)Nc2ccc(C(C)(C)C)cc2)c1", "EC50": "> 55.7 µM (inactive)"}, {"smiles": "CCC(C)NC(=O)c1cc(-c2ccc(OC)cc2)on1", "note": "(stereo not drawn)", "EC50": "> 55.7 µM (inactive)"}, {"smiles": "Fc1ccccc1CSc1nnc(-c2cccnc2)o1", "EC50": "> 55.7 µM (inactive)"}, {"smiles": "CCN(CC)c1ccc2cc(C(=O)Nc3ccccn3)c(=O)oc2c1", "EC50": "> 55.7 µM (inactive)"}, {"smiles": "Cc1nc2ccc3nc(NC(=O)c4ccco4)sc3c2s1", "EC50": "> 55.7 µM (inactive)"}, {"smiles": "COc1ccc2c(c1)oc(=O)c1cc(OC)ccc12", "EC50": "> 55.7 µM (inactive)"}, {"smiles": "O=C(/C=C/c1ccc(F)cc1)Nc1nc2ccccc2[nH]1", "EC50": "> 55.7 µM (inactive)"}, {"smiles": "CC(=O)Nc1cccc(-c2cnc3ccccc3n2)c1", "EC50": "> 55.7 µM (inactive)"}, {"smiles": "CC(=O)c1cccc(NC(=S)NC(=O)c2cccc(C)c2)c1", "EC50": "> 55.7 µM (inactive)"}, {"smiles": "O=C(/C(C=Nc1ccc(Br)cc1)=C(/O)c1ccco1)C(F)(F)F", "EC50": "> 55.7 µM (inactive)"}, {"smiles": "CCOCC(=O)Nc1nc2ccc(OCC)cc2s1", "EC50": "> 55.7 µM (inactive)"}, {"smiles": "Cc1occc1C(=O)Nc1ccc2c(c1)CCC2", "EC50": "> 55.7 µM (inactive)"}, {"smiles": "O=C(Nc1ccc(-c2nc3cccnc3s2)cc1)c1ccco1", "EC50": "> 55.7 µM (inactive)"}, {"smiles": "Cc1nnc(SCC(=O)Nc2ccc(-c3nc4ccccc4s3)cc2)s1", "EC50": "> 55.7 µM (inactive)"}, {"smiles": "O=[N+]([O-])c1ccccc1OCCCn1cnc2ccccc21", "EC50": "> 55.7 µM (inactive)"}, {"smiles": "COc1ccc(Nc2oc(-c3cccs3)nc2C#N)cc1", "EC50": "> 55.7 µM (inactive)"}, {"smiles": "CCOc1ccc2nc(N3CCOCC3)nc(C)c2c1", "EC50": "> 55.7 µM (inactive)"}, {"smiles": "CCCCCNc1nc(-c2ccccc2)cs1", "EC50": "> 55.7 µM (inactive)"}, {"smiles": "CC(C)=CC(=O)Nc1nc2ccc([N+](=O)[O-])cc2s1", "EC50": "> 55.7 µM (inactive)"}, {"smiles": "O=C(/C=C/c1ccco1)Nc1ccccn1", "EC50": "> 55.7 µM (inactive)"}, {"smiles": "CCNc1nc(-c2cc3ccccc3o2)cs1", "EC50": "> 55.7 µM (inactive)"}, {"smiles": "COc1ccc(-c2nc3ccc([N+](=O)[O-])cc3[nH]2)cc1", "EC50": "> 55.7 µM (inactive)"}, {"smiles": "CN(C)c1ccc(C(=O)OCC(=O)c2cccs2)cc1", "EC50": "> 55.7 µM (inactive)"}, {"smiles": "COc1ccc(NC(=S)Nc2ccc3nccnc3c2)cc1", "EC50": "> 55.7 µM (inactive)"}, {"smiles": "c1cncc(-c2nc3cc4ccccc4cc3[nH]2)c1", "EC50": "> 55.7 µM (inactive)"}, {"smiles": "CCc1c(C)[nH]c(C(=O)OCc2ccccc2)c1C", "EC50": "> 55.7 µM (inactive)"}]}]}
